Laboratory results as given in publication PMC3628601, “Novel control of lactate dehydrogenase from the freeze tolerant wood frog: role of posttranslational modifications” (PeerJ, 2013).

How the values were obtained:
Format in all cases: biochemical, Lithobates sylvaticus
[1] = test system: T1, muscle LDH, dehydrated (dehydrated LDH); test: NADH production at […] nm, reverse reaction; settings: pH 8, 22 °C, 50 mM Tris
T1 construct: gene LDHA

[2] = test system: T2, muscle LDH, control (control LDH); test: NADH production at […] nm, reverse reaction; settings: pH 8, 22 °C, 50 mM Tris
T2 construct: gene LDHA

[3] = test system: T1, muscle LDH, dehydrated (dehydrated LDH); test: NADH absorbance at […] nm, forward reaction; settings: pH 7.0, 22 °C, 50 mM Tris, saturating NADH (0.15 mM); inhibition by excess substrate
[4] = test system: T2, muscle LDH, control (control LDH); test: NADH consumption at […] nm, forward reaction; settings: pH 7, 22 °C, 50 mM Tris, saturating NADH (0.15 mM)
[5] = test system: T2, muscle LDH, control (control LDH); test: NADH absorbance at […] nm, forward reaction; settings: pH 7.0, 22 °C, 50 mM Tris, saturating NADH (0.15 mM); inhibition by excess substrate
[6] = test system: T1, muscle LDH, dehydrated (dehydrated LDH); test: NADH consumption at […] nm, forward reaction; settings: pH 7, 22 °C, 50 mM Tris, saturating NADH (0.15 mM)

C[C@H](O)C(=O)O [L-lactate] was tested, and the Km ([1]; saturating NAD (1 mM)) was 5600 ± 500 µM and the Km ([2]; saturating NAD (1 mM)) was 11000 ± 640 µM.
NC(=O)c1ccc[n+]([C@@H]2O[C@H](COP(=O)(O)OP(=O)(O)OC[C@H]3O[C@@H](n4cnc5c(N)ncnc54)[C@H](O)[C@@H]3O)[C@@H](O)[C@H]2O)c1 [NAD] was tested, and the Km ([1]; saturating L-lactate (22.5 mM)) was 640 ± 40 µM and the Km ([2]; saturating L-lactate (22.5 mM)) was 1380 ± 50 µM.
For CC(=O)C(=O)O [pyruvate], the Dehydrated [3] was 8.26 ± 0.76 mM, the Km [4] was 160 ± 10 µM and the Control [5] was 7.93 ± 0.34 mM. The Km [6] was 130 ± 10 µM.
